Experimental data from US20210164997A1, “HSP70 PROTEIN LEVELS IN PBMC SAMPLES AS BIOMARKER FOR DISEASE” (Orphazyme A/S, priority 2018, published 2021).

Experiments:
[1] = tested on: Hsp70 (HspA1A and HspA1B) in PBMC; assay: Hsp70 level in PBMC samples of NPC patients treated with arimoclomol (ELISA); format: in vivo, human
Description: Whole blood samples were collected in 6 mL EDTA tubes at the clinical study sites and shipped ambient to a central laboratory for sample preparation.
Clinical study samples (n=26) were obtained from individuals with Niemann Pick disease Type C (NPC patients), who were 2 to 18 years of age, diagnosed with NPC, had at least one neurological symptom and had preserved ability to walk with assistance. Patients were maintained on standard therapy during the study. Samples were collected at a first clinical study visit (inclusion) and at a second clinical study visit 6 to 14 months following the first visit.
Plasma was separated from whole blood by centrifugation at room temperature. Blood volume was restored in PBS and PBMCs were isolated by density gradient centrifugation using Histopaque™. Viable PBMC cell count was determined by flow cytometry. Aliquots of 1 mio. PBMC were generated and stored frozen at −70° C.
Hsp70 was quantified using the Human/Mouse/Rat total HSP70 DuoSet® IC ELISA kit (R&D Systems). Prior to analysis of the clinical study samples, the analytical method had been qualified for determination of Hsp70 in human PBMC samples. The Human/Mouse/Rat total HSP70 DuoSet® IC ELISA kit detects the levels of HspA1A and HspA1B with no cross-reactivity of HspA5 and HspA8.
The materials and methods were performed as described in Example 1.
The Hsp70 concentration was measured in homogenates of Peripheral Blood Mononuclear Cells (PBMC). Hsp70 was determined in an observational study (FIGS. 4 and 5), at screening (pretreatment) and then again after 6-14 months (baseline). Patients were treated for 12 months with arimoclomol (Clinicaltrials.gov identifier NCT02612129). Hsp70 levels were analyzed by the Wilcoxon signed rank test for the 12 patients on arimoclomol with baseline and 12 months data point comparing the Hsp70 levels before and after 12 months of treatment.

mutant NPC1 mice = settings: cited from earlier work
[2] = PBMC homogenates, 12 months of treatment vs baseline, n=12

[O-][n+]1cccc(/C(Cl)=N/OC[C@H](O)CN2CCCCC2)c1 [arimoclomol, N-[2-hydroxy-3-(1-piperidinyl)-propoxy]-pyridine-1-oxide-3-carboximidoyl chloride]
Hsp70 change from baseline, Median [1, 2]: 1175.5 pg/mL | Hsp70 change from baseline, Min-max [1, 2]: 234.7 to 6509.0 pg/mL | Hsp70 change from baseline, mean (SD) [1, 2]: 1815.0 (1754.6) pg/mL | PBMC-level of Hsp70 compared to baseline ([1]; treatment for 12 months): significantly increased | neuronal as well as visceral pathology (mutant NPC1 mice): reversed | size of the lysosomal compartment (mutant NPC1 mice): reduced
